Measurements: US20040034105A1, “Use of 1-phenyl-3-dimethylaminopropane compounds for treatment of urinary incontinence” (Gruenenthal GmbH, priority 2000, published 2004)
Marks after values point to notes of the source that are not given here.

How the values were obtained:
[1] = tested on: female Sprague-Dawley rats; assay: Cystometry tests on conscious fresh rats; type: in vivo, rat; settings: for BC Bladder Capacity (change compared to the baseline value) / ICI Inter-Contraction Interval (change compared to the baseline value) / TP Threshold Pressure (change compared to the baseline value): effect maximum, mean of 3 micturition cycles; for Activity of the enantiomers of racemic compound 1 in cystometry: iv
Procedure: Three days after implantation of bladder and venous catheters the animals were investigated in the conscious state while freely moving. The bladder catheter was connected to a pressure gauge and an injection pump. The animals were placed in metabolic cages that enable the volume of urine to be measured. Physiological saline solution was infused (10 ml/hour) into the emptied bladder and the bladder pressure and volume of urine were continuously recorded. After a stabilisation phase a 20-minute phase was recorded that was characterised by normal, reproducible micturition cycles. The following parameters among others were measured:
threshold pressure TP, bladder pressure immediately before micturition,
bladder capacity BC, residual volume after prior micturition plus volume of infused solution during the filling phase,
intercontraction interval ICI, i.e. the time interval between consecutive micturition.
An increase in the threshold pressure (TP) indicates an important therapeutic effect in one of the medical conditions covered by the invention. Also, the intercontraction interval (ICI) is an important parameter for measuring the physiological effectiveness of a substance in the treatment of urinary incontinence, as is the bladder capacity (BC). In this connection, on account of the widely differing causes of the symptoms of these disease patterns it is not necessary to influence positively all three parameters in order for a medicament to be effective.
After recording three reproducible micturition cycles to provide a baseline value, the test substances 1 (1.0 mg/kg), 2 (0.1; 0.3 and 0.5 mg/kg), 21 (0.5 mg/kg), 7 (0.3 mg/kg), 8 (1.0 mg/kg), 9 (0.5 mg/kg) and 11 (0.5 mg/kg) in a vehicle comprising 0.9% NaCl were applied intravenously and the effect on the cystometric parameters was recorded at 90 to 120 minutes. In the effect maximum the mean value of 3 micturition cycles was determined and recorded as a percentage change compared to the baseline value (Table 1).

female rats = assay: Cystometry investigations in narcotised fresh rats (suppression of spontaneous bladder contractions); type: in vivo, rat; settings: intravenous, cumulative, mean value from at least two experiments
Procedure: The cystometric investigation was carried out on fresh female rats according to the method of Kimura et al. (Kimura et al., 1996, Int. J. Urol. 3: 218-227). The abdomen of narcotised ventilated rats is opened and the ureter is ligated. The urine is drawn off from the kidneys. A catheter is inserted into the bladder and secured in place. […] The test substance is applied intravenously in a cumulative manner after stable starting values were reached. An effect on the bladder function is manifested by the suppression of the spontaneous contractions. The disappearance of the contractions over a period of 10 minutes serves as a parameter for their suppression.
With all the substances listed there was a measurable suppression of the spontaneous contractions in rats, Table 2 showing the mean value of the lowest dose from at least two experiments, in which contractions disappeared for the first time over a period of 10 minutes.

CC[C@](O)(c1cccc(OC)c1)[C@H](C)CN(C)C.Cl (racemic) [Compound 1, (2RS,3RS)-1-dimethylamino-3-(3-methoxyphenyl)-2-methylpentan-3-ol, hydrochloride]
BC Bladder Capacity (change compared to the baseline value) ([1]; 1.0 mg/kg iv): +31%*** | ICI Inter-Contraction Interval (change compared to the baseline value) ([1]; 1.0 mg/kg iv): +42% | TP Threshold Pressure (change compared to the baseline value) ([1]; 1.0 mg/kg iv): +94%**

CC[C@](O)(c1ccc(Cl)c(Cl)c1)[C@H](C)CN(C)C.Cl (racemic) [Compound 3, (2RS,3RS)-3-(3,4-dichlorophenyl)-1-dimethylamino-2-methylpentan-3-ol, hydrochloride]
Lowest Dose at which contractions disappeared for the first time over a period of 10 minutes (female rats): 23.3 mg/kg

CC[C@](O)(c1cccc(C(F)F)c1)[C@H](C)CN(C)C.Cl (racemic) [Compound 4, (2RS,3RS)-3-(3-difluoromethylphenyl)-1-dimethylamino-2-methylpentan-3-ol, hydrochloride]
Lowest Dose at which contractions disappeared for the first time over a period of 10 minutes (female rats): 1.7 mg/kg

CC[C@](O)(c1cccc(SC)c1)[C@H](C)CN(C)C.Cl (racemic) [Compound 5, (2RS,3RS)-1-dimethylamino-2-methyl-3-(3-methylsulfanylphenyl)-pentan-3-ol, hydrochloride]
Lowest Dose at which contractions disappeared for the first time over a period of 10 minutes (female rats): 2.3 mg/kg

COc1cccc(C(O)(CCN(C)C)C(C)(C)C)c1.Cl (racemic) [Compound 6, (3RS)-1-dimethylamino-3-(3-methoxyphenyl)-4,4-dimethylpentan-3-ol, hydrochloride]
Lowest Dose at which contractions disappeared for the first time over a period of 10 minutes (female rats): 16.7 mg/kg

CCC(O)(c1cccc(O)c1)C(C)CN(C)C.Cl (racemic) [Compound 7, (2RS,3RS)-3-(3-dimethylamino-1-ethyl-1-hydroxy-2-methylpropyl)-phenol, hydrochloride]
BC Bladder Capacity (change compared to the baseline value) ([1]; 0.3 mg/kg iv): +32%* | ICI Inter-Contraction Interval (change compared to the baseline value) ([1]; 0.3 mg/kg iv): +28%* | TP Threshold Pressure (change compared to the baseline value) ([1]; 0.3 mg/kg iv): +95%**

C[C@H](CN(C)C)[C@@](C)(O)c1cccc(O)c1.Cl (racemic) [Compound 8, (1RS,2RS)-3-(3-dimethylamino-1-hydroxy-1,2-dimethylpropyl)-phenol, hydrochloride]
BC Bladder Capacity (change compared to the baseline value) ([1]; 1.0 mg/kg iv): +7% | ICI Inter-Contraction Interval (change compared to the baseline value) ([1]; 1.0 mg/kg iv): +14.4% | TP Threshold Pressure (change compared to the baseline value) ([1]; 1.0 mg/kg iv): +60%**

CCC(O)(c1cccc(OC)c1)C1(CN(C)C)CCCCC1.Cl (racemic) [Compound 13, (1RS)-1-(1-dimethylaminomethylcyclohexyl)-1-(3-methoxyphenyl)-propan-1-ol, hydrochloride]
Lowest Dose at which contractions disappeared for the first time over a period of 10 minutes (female rats): 20.0 mg/kg

CC[C@](O)(c1ccc(Cl)cc1)[C@H](C)CN(C)C.Cl (racemic) [Compound 14, (2RS,3RS)-3-(4-chlorophenyl)-1-dimethylamino-2-methylpentan-3-ol, hydrochloride]
Lowest Dose at which contractions disappeared for the first time over a period of 10 minutes (female rats): 20.0 mg/kg

CC[C@](O)(c1cccc(OC)c1)[C@H](C)CN(C)C.Cl [Compound 2, (+)-(2R,3R)-1-dimethylamino-3-(3-methoxyphenyl)-2-methylpentan-3-ol, hydrochloride]
BC Bladder Capacity (change compared to the baseline value) ([1]; 0.1 mg/kg iv): +7.8% | ICI Inter-Contraction Interval (change compared to the baseline value) ([1]; 0.1 mg/kg iv): +15.6% | TP Threshold Pressure (change compared to the baseline value) ([1]; 0.1 mg/kg iv): +28.5%** | BC Bladder Capacity (change compared to the baseline value) ([1]; 0.3 mg/kg iv): +33%* | ICI Inter-Contraction Interval (change compared to the baseline value) ([1]; 0.3 mg/kg iv): +28%* | TP Threshold Pressure (change compared to the baseline value) ([1]; 0.3 mg/kg iv): +122%** | BC Bladder Capacity (change compared to the baseline value) ([1]; 0.5 mg/kg iv): +20.6%* | ICI Inter-Contraction Interval (change compared to the baseline value) ([1]; 0.5 mg/kg iv): +28.6%** | TP Threshold Pressure (change compared to the baseline value) ([1]; 0.5 mg/kg iv): +77.5%** | Activity of the enantiomers of racemic compound 1 in cystometry [1]: effectively active

C[C@H](CN(C)C)[C@@](C)(O)c1cccc(O)c1.Cl [Compound 9, (+)-(1R,2R)-3-(3-dimethylamino-1-hydroxy-1,2-dimethylpropyl)-phenol, hydrochloride]
BC Bladder Capacity (change compared to the baseline value) ([1]; 0.5 mg/kg iv): +50%** | ICI Inter-Contraction Interval (change compared to the baseline value) ([1]; 0.5 mg/kg iv): +21%* | TP Threshold Pressure (change compared to the baseline value) ([1]; 0.5 mg/kg iv): +56%**

C[C@H](CN(C)C)[C@@](C)(O)c1cccc(O)c1.Cl [Compound 10, (+)-(1R,2R)-3-(3-dimethylamino-1-hydroxy-1,2-dimethylpropyl)-phenol, hydrochloride]
Lowest Dose at which contractions disappeared for the first time over a period of 10 minutes (female rats): 0.2 mg/kg

CC[C@@H](c1cccc(O)c1)[C@@H](C)CN(C)C.Cl [Compound 11, (−)-(1R,2R)-3-(3-dimethylamino-1-ethyl-2-methylpropyl)-phenol, hydrochloride]
BC Bladder Capacity (change compared to the baseline value) ([1]; 0.5 mg/kg iv): +11% | ICI Inter-Contraction Interval (change compared to the baseline value) ([1]; 0.5 mg/kg iv): +22.6% | TP Threshold Pressure (change compared to the baseline value) ([1]; 0.5 mg/kg iv): +9%

CC[C@](OC(C)=O)(c1cccc(OC)c1)[C@H](C)CN(C)C.Cl [Compound 12, (+)-(1R,2R)-acetic acid-3-dimethylamino-1-ethyl-1-(3-methoxyphenyl)-2-methylpropyl ester, hydrochloride]
Lowest Dose at which contractions disappeared for the first time over a period of 10 minutes (female rats): 30.0 mg/kg

CC[C@@](O)(c1cccc(OC)c1)[C@@H](C)CN(C)C.Cl [Compound 21, (−)-(2S,3S)-1-dimethylamino-3-(3-methoxyphenyl)-2-methylpentan-3-ol, hydrochloride]
BC Bladder Capacity (change compared to the baseline value) ([1]; 0.5 mg/kg iv): +3% | ICI Inter-Contraction Interval (change compared to the baseline value) ([1]; 0.5 mg/kg iv): +10% | TP Threshold Pressure (change compared to the baseline value) ([1]; 0.5 mg/kg iv): −1.1% | Activity of the enantiomers of racemic compound 1 in cystometry [1]: plays only a contributory role
